# Reference: the supplement of paper PMC10307832
# Experiments:
# Test in all cases: relative viability (nuclei count vs DMSO), 5 days (fraction); higher = more cells survive
# NCI-H1993 = system: NCI-H1993
# Summary of the method: (§1)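 Medians of duplicate plates are given as relative viability. That measure is the nuclei count in treated wells divided by the count in vehicle wells. Counts were taken on 4× images of lung cancer cell lines in 1536-well plates, 5 days after pin-tool dosing the day after seeding with one drug alone or a fixed anchor-drug dose plus five library-drug doses (not always all listed) in √10 steps.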
# NCI-H650 = system: NCI-H650
# Summary of the method: as §1
# BEN = system: BEN
# Summary of the method: as §1
# LU99A = system: LU99A
# Summary of the method: as §1
# HOP-62 = system: HOP-62
# Summary of the method: as §1
# NCI-H2347 = system: NCI-H2347
# Summary of the method: as §1
# ChaGo-K-1 = system: ChaGo-K-1
# Summary of the method: as §1
# NCI-H1793 = system: NCI-H1793
# Summary of the method: as §1
# NCI-H441 = system: NCI-H441
# Summary of the method: as §1
# NCI-H2009 = system: NCI-H2009
# Summary of the method: as §1
# NCI-H727 = system: NCI-H727
# Summary of the method: as §1
# LXF-289 = system: LXF-289
# Summary of the method: as §1
# COR-L 105 = system: COR-L 105
# Summary of the method: as §1
# NCI-H1975 = system: NCI-H1975
# Summary of the method: as §1
# NCI-H358 = system: NCI-H358
# Summary of the method: as §1
# SK-MES-1 = system: SK-MES-1
# Summary of the method: as §1
# NCI-H2342 = system: NCI-H2342
# Summary of the method: as §1
# EPLC-272H = system: EPLC-272H
# Summary of the method: as §1
# NCI-H460 = system: NCI-H460
# Summary of the method: as §1
# A-427 = system: A-427
# Summary of the method: as §1
# NCI-H1395 = system: NCI-H1395
# Summary of the method: as §1
# LCLC-103H = system: LCLC-103H
# Summary of the method: as §1
# NCI-H1666 = system: NCI-H1666
# Summary of the method: as §1
# NCI-H1650 = system: NCI-H1650
# Summary of the method: as §1
smiles,measurement,setting,value
Nc1cccc2c1CN(C1CCC(=O)NC1=O)C2=O (stereo not drawn) [Lenalidomide] + Nc1ncn([C@H]2C[C@H](O)[C@@H](CO)O2)c(=O)n1 [Decitabine] (partner 2 µM),relative viability,NCI-H1993; first compound 0.253 µM,0.658
same,relative viability,NCI-H1993; first compound 0.8 µM,0.588
same,relative viability,NCI-H1993; first compound 2.53 µM,0.529
same,relative viability,NCI-H1993; first compound 8 µM,0.51
same,relative viability,NCI-H650; first compound 0.253 µM,0.312
same,relative viability,NCI-H650; first compound 0.8 µM,0.349
same,relative viability,NCI-H650; first compound 2.53 µM,0.351
same,relative viability,NCI-H650; first compound 8 µM,0.332
same,relative viability,BEN; first compound 0.253 µM,0.728
same,relative viability,BEN; first compound 0.8 µM,0.635
same,relative viability,BEN; first compound 2.53 µM,0.766
same,relative viability,BEN; first compound 8 µM,0.62
same,relative viability,LU99A; first compound 0.253 µM,0.894
same,relative viability,LU99A; first compound 0.8 µM,0.823
same,relative viability,LU99A; first compound 2.53 µM,0.868
same,relative viability,LU99A; first compound 8 µM,0.702
same,relative viability,HOP-62; first compound 0.253 µM,0.264
same,relative viability,HOP-62; first compound 0.8 µM,0.239
same,relative viability,HOP-62; first compound 2.53 µM,0.224
same,relative viability,HOP-62; first compound 8 µM,0.212
same,relative viability,NCI-H2347; first compound 0.253 µM,0.616
same,relative viability,NCI-H2347; first compound 0.8 µM,0.617
same,relative viability,NCI-H2347; first compound 2.53 µM,0.624
same,relative viability,NCI-H2347; first compound 8 µM,0.566
same,relative viability,ChaGo-K-1; first compound 0.253 µM,0.519
same,relative viability,ChaGo-K-1; first compound 0.8 µM,0.551
same,relative viability,ChaGo-K-1; first compound 2.53 µM,0.525
same,relative viability,ChaGo-K-1; first compound 8 µM,0.538
same,relative viability,NCI-H1793; first compound 0.253 µM,0.464
same,relative viability,NCI-H1793; first compound 2.53 µM,0.535
same,relative viability,NCI-H1793; first compound 8 µM,0.44
same,relative viability,NCI-H441; first compound 0.253 µM,0.233
same,relative viability,NCI-H441; first compound 0.8 µM,0.229
same,relative viability,NCI-H441; first compound 2.53 µM,0.264
same,relative viability,NCI-H441; first compound 8 µM,0.262
same,relative viability,NCI-H2009; first compound 0.253 µM,0.415
same,relative viability,NCI-H2009; first compound 0.8 µM,0.387
same,relative viability,NCI-H2009; first compound 2.53 µM,0.406
same,relative viability,NCI-H2009; first compound 8 µM,0.397
same,relative viability,NCI-H727; first compound 0.253 µM,0.778
same,relative viability,NCI-H727; first compound 0.8 µM,0.637
same,relative viability,NCI-H727; first compound 2.53 µM,0.99
same,relative viability,NCI-H727; first compound 8 µM,0.616
same,relative viability,LXF-289; first compound 0.253 µM,0.388
same,relative viability,LXF-289; first compound 0.8 µM,0.351
same,relative viability,LXF-289; first compound 2.53 µM,0.393
same,relative viability,LXF-289; first compound 8 µM,0.335
same,relative viability,COR-L 105; first compound 0.253 µM,0.684
same,relative viability,COR-L 105; first compound 0.8 µM,0.704
same,relative viability,COR-L 105; first compound 2.53 µM,0.763
same,relative viability,COR-L 105; first compound 8 µM,0.711
same,relative viability,NCI-H1975; first compound 0.253 µM,0.414
same,relative viability,NCI-H1975; first compound 0.8 µM,0.334
same,relative viability,NCI-H1975; first compound 2.53 µM,0.421
same,relative viability,NCI-H1975; first compound 8 µM,0.356
same,relative viability,NCI-H358; first compound 0.8 µM,0.228
same,relative viability,NCI-H358; first compound 2.53 µM,0.232
same,relative viability,NCI-H358; first compound 8 µM,0.22
same,relative viability,SK-MES-1; first compound 0.253 µM,0.362
same,relative viability,SK-MES-1; first compound 0.8 µM,0.342
same,relative viability,SK-MES-1; first compound 2.53 µM,0.428
same,relative viability,SK-MES-1; first compound 8 µM,0.394
same,relative viability,NCI-H2342; first compound 0.253 µM,0.687
same,relative viability,NCI-H2342; first compound 0.8 µM,0.678
same,relative viability,NCI-H2342; first compound 2.53 µM,0.624
same,relative viability,NCI-H2342; first compound 8 µM,0.699
same,relative viability,EPLC-272H; first compound 0.253 µM,0.382
same,relative viability,EPLC-272H; first compound 0.8 µM,0.381
same,relative viability,EPLC-272H; first compound 2.53 µM,0.413
same,relative viability,EPLC-272H; first compound 8 µM,0.32
same,relative viability,NCI-H460; first compound 0.253 µM,0.402
same,relative viability,NCI-H460; first compound 0.8 µM,0.476
same,relative viability,NCI-H460; first compound 2.53 µM,0.64
same,relative viability,NCI-H460; first compound 8 µM,0.649
same,relative viability,A-427; first compound 0.253 µM,0.566
same,relative viability,A-427; first compound 0.8 µM,0.573
same,relative viability,A-427; first compound 2.53 µM,0.646
same,relative viability,A-427; first compound 8 µM,0.552
same,relative viability,NCI-H1395; first compound 0.253 µM,0.763
same,relative viability,NCI-H1395; first compound 2.53 µM,0.743
same,relative viability,NCI-H1395; first compound 8 µM,0.703
same,relative viability,LCLC-103H; first compound 0.253 µM,0.72
same,relative viability,LCLC-103H; first compound 0.8 µM,0.664
same,relative viability,LCLC-103H; first compound 2.53 µM,0.73
same,relative viability,LCLC-103H; first compound 8 µM,0.651
same,relative viability,NCI-H1666; first compound 0.253 µM,0.791
same,relative viability,NCI-H1666; first compound 0.8 µM,0.528
same,relative viability,NCI-H1666; first compound 2.53 µM,0.772
same,relative viability,NCI-H1666; first compound 8 µM,0.647
same,relative viability,NCI-H1650; first compound 0.253 µM,0.387
same,relative viability,NCI-H1650; first compound 0.8 µM,0.424
same,relative viability,NCI-H1650; first compound 2.53 µM,0.419
same,relative viability,NCI-H1650; first compound 8 µM,0.479
